This passage reports inhibition and IC50 results from ChEMBL document CHEMBL3112544, “Discovery of ZAP70 inhibitors by high-throughput docking into a conformation of its kinase domain generated by molecular dynamics” (Bioorg Med Chem Lett, 2013).

For orientation: inhibition means the relative decrease from the control value, in per cent. In general, IC50 refers to the concentration that inhibits the measured activity by half.

Activity calls are given as the source filed them. The calls are words filed in the database; no cut-off is given here. Where only a bound is given, the exact number is not on record here.

The target in experiment [1] is T1, Tyrosine-protein kinase SYK (Homo sapiens, UniProt P43405). In words: Inhibition of SYK (unknown origin) at 20 uM by radioactive ATP method.
Experiment [2] has as its target T2, Tyrosine-protein kinase ZAP-70 (Homo sapiens) (UniProt P43403).
T2 sequence (whole entry): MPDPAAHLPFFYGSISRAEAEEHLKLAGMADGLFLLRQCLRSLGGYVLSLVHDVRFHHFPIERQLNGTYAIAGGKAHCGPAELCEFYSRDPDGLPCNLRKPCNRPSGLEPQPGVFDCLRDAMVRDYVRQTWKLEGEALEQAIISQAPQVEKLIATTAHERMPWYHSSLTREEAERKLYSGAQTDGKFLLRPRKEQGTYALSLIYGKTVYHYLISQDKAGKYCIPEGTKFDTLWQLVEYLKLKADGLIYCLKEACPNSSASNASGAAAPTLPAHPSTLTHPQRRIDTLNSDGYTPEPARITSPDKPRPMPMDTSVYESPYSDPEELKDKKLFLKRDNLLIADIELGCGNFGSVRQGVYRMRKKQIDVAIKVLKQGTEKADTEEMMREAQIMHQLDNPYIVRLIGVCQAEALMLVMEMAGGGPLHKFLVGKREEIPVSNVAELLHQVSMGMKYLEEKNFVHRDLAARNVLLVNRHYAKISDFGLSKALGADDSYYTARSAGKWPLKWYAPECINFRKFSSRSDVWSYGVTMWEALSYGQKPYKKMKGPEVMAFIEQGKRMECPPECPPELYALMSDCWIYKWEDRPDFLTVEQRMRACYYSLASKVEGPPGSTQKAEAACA
In words: Inhibition of full-length ZAP70 (unknown origin) at 20 uM by radioactive ATP method.

The target of experiment [3] is T3, Tyrosine-protein kinase JAK2 (Homo sapiens, UniProt O60674). In words: Inhibition of JAK2 (unknown origin) by radioactive ATP method.
In experiment [4] the target is T1, Tyrosine-protein kinase SYK. In words: Inhibition of SYK (unknown origin) by radioactive ATP method.
Experiment [5] has as its target T4, Tyrosine-protein kinase ZAP-70 (Homo sapiens, UniProt P43403).
T4 sequence (P43403 whole entry): T2 sequence (whole entry)
In words: Inhibition of full-length ZAP70 (unknown origin) by radioactive ATP method.

Experiment [6] addresses T3, Tyrosine-protein kinase JAK2. In words: Inhibition of JAK2 (unknown origin) at 20 uM by radioactive ATP method.

T3 sequence (O60674 whole entry): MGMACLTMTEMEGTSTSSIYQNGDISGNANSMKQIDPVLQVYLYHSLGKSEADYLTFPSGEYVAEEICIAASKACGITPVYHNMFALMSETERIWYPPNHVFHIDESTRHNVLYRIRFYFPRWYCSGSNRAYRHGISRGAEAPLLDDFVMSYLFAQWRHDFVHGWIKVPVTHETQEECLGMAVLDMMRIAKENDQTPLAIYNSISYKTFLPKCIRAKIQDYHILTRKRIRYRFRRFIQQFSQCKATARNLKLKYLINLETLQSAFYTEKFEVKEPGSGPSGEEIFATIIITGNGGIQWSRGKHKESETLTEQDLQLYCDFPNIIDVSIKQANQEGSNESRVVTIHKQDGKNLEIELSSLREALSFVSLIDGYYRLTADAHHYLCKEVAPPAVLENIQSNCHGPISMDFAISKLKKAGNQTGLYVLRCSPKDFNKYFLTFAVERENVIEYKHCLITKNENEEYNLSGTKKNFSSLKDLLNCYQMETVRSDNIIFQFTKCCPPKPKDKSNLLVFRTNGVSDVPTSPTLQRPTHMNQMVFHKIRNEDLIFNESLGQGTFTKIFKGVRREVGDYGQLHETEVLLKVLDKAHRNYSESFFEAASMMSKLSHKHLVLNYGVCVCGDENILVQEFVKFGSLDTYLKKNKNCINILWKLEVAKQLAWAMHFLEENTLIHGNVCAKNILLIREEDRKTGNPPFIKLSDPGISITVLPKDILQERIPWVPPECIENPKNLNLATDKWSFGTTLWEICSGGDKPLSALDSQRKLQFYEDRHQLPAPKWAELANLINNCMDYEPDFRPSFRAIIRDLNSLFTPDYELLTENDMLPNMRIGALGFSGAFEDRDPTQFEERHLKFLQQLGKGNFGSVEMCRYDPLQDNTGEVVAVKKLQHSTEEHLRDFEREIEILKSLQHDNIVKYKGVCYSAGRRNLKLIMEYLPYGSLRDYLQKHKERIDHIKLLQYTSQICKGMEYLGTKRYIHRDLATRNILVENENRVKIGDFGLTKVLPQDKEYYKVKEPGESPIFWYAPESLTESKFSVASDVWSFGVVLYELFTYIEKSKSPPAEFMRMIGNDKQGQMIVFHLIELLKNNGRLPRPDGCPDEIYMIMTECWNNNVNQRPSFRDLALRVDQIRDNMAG

Turning to `O=C1NN(c2ccccc2)C(=O)/C1=C/c1ccc(-c2ccccc2)o1`, the inhibition was 17% in experiment [1] and 49% in experiment [2]. As for `N#C/C(=C1/C(=O)Nc2ccccc21)c1nc2ccccc2[nH]1`, in experiment [2], the inhibition result is “inactive”. For the compound `COc1ccc(Nc2nc(N3CCOCC3)c3nc[nH]c3n2)cc1OC`, the figures for the IC50 in experiment [3], in experiment [4] and in experiment [5] were 0.11 µM, 12 µM and 62 µM, respectively. As to `N[C@@H](CO)C(=O)N1CCc2[nH]nc(-c3ccc(F)c(F)c3)c2C1`, in experiment [2], the inhibition entry is “inactive”. On the same count and under the same terms, under `Cc1ccc(-c2n[nH]c3c2CN(c2ncc(F)c(NCCO)n2)CC3)cc1` stands “inactive”; under `COc1ccc(NC2=NC3NN=C(N)C3C3=C2CN(C)CC3)cc1` (stereo unspecified), “inactive”; under `CC(=O)Nc1ccc(OS(=O)(=O)c2ccc3[nH]c(=O)[nH]c3c2)cc1`, “inactive”. In the case of `COc1ccc(/C=C2/NC(=O)N(c3cccc(Cl)c3)C2=O)cc1O`, in experiment [2], the inhibition result is “inactive”. As to `O=C1NN(c2ccc(F)cc2)C(=O)/C1=C\c1cccc(OCc2ccccc2F)c1`, the inhibition in experiment [6] amounted to 22%; in experiment [1], 16%; in experiment [2], 46%. Consider `Nc1ccc(C(=O)N2CCc3[nH]nc(-c4cc(F)cc(F)c4)c3C2)cn1`, for which the inhibition result in experiment [2] is “inactive”.

Turning to `Oc1ccc(-c2ccnc3cc(Cl)ccc23)cc1CN1CCCCC1`, the inhibition entry in experiment [2] was “inactive”.

Turning to `Cc1cc(NC(=O)c2sc(Nc3ccccc3)nc2N)on1`, the inhibition result in experiment [2] was “inactive”.

On to `O=C1Nc2ccccc2/C1=C(\c1ccccc1)c1nc2ccccc2[nH]1`, for which the IC50 in experiment [4] stood at 40 µM; in experiment [5], 26 µM. Turning to `O=C(c1ccc2[nH]cnc2c1)N1CCc2[nH]nc(-c3cccc(Cl)c3)c2C1`, the inhibition result in experiment [2] was “inactive”. Consider `O=C1NN(c2ccccc2)C(=O)/C1=C\c1cc(Cl)ccc1OCc1ccccc1`, for which the IC50 in experiment [3] amounted to 15 µM; in experiment [5] it was 22 µM. For the same compound, the inhibition in experiment [1] came out at 16%. As for `O=C1Nc2ccc(S(=O)(=O)Cc3ccc4ccccc4c3)c3cccc1c23`, the inhibition result in experiment [2] was “inactive”. Turning to `CC(C)c1ccc(-c2c(C#N)c(N)nc3sc(C(N)=O)c(N)c23)cc1`, in experiment [2], the inhibition entry was “inactive”. For the compound `O=C1NC(=S)N/C1=C1\C(=O)N(Cc2ccccc2Cl)c2ccccc21`, the half-inhibitory concentration (IC50) amounted to 168 µM in experiment [4] and 21 µM in experiment [5]. For `O=C1N/C(=C/c2ccc(O)cc2)C(=O)N1c1ccccc1`, the inhibition result in experiment [2] is “inactive”. Still for that read-out and setting: under `O=C(c1ccc2[nH]c(=O)[nH]c2c1)N1CCc2[nH]nc(-c3ccccc3)c2C1` stands “inactive”. Turning to `O=C1NN(c2ccccc2)C(=O)/C1=C/c1ccc(-c2ccccc2Cl)o1`, the IC50 in experiment [4] was 57 µM; in experiment [5], 14 µM.

`CCOc1ccc(Nc2nc(N)c(C(=O)c3cccc(OC)c3)s2)cc1`: the IC50 in experiment [4] is more than 200 µM; in experiment [5] it was 29 µM. For the compound `Clc1cccc(C2C=C(c3cccnc3)Nc3nc4ccccc4n32)c1` (stereo unspecified), in experiment [2], the inhibition entry was “inactive”. Regarding `O=C1NC(=O)N(c2ccccc2F)C(=O)/C1=C\c1cccn1-c1ccccc1`, the inhibition result in experiment [2] was “inactive”. In the case of `O=c1[nH]c2ccc(S(=O)(=O)NC3CC3)cc2c2ccccc12`, the inhibition result in experiment [2] is “inactive”. The same measure, in the same setting: under `O=C1NC(=O)N(c2cccc(F)c2)C(=O)/C1=C\c1cccn1-c1ccccc1` stands “inactive”. With `O=C1NC(=O)N(c2ccc(F)cc2)C(=O)/C1=C\c1cccn1-c1ccc(O)cc1`, the inhibition entry in experiment [2] is “inactive”. On to `COc1cccc(-c2ccnc3[nH]n(-c4ccccc4)c(=O)c23)c1`, for which, in experiment [2], the inhibition entry is “inactive”. On to `CCn1c(N)c(-c2csc(-c3ccc(O)cc3)n2)c(=O)[nH]c1=O`, for which, in experiment [2], the inhibition result is “inactive”. As to `Cc1ccc2[nH]c3c(c2c1)CCC1C3=NNC1c1ccccc1` (stereo unspecified), in experiment [2], the inhibition entry is “inactive”.

For the compound `O=C1Nc2ccc3c(oc4ccccc43)c2C1=NNc1ccncc1`, the results for the IC50 in experiment [3], in experiment [4] and in experiment [5] were 11 µM, 26 µM and 8 µM, respectively.

With `Cc1cc(/C=C2/C(=O)NN(c3ccccc3)C2=O)c(C)n1-c1cccc(O)c1`, the inhibition came out at 16% in experiment [1] and 43% in experiment [2].
